From patent US6432880B1, “Substituted 2-phenylpyridines as herbicides” (BASF Aktiengesellschaft, priority 1999, dated 2002)

SMILES | melting point
CS(=O)(=O)Oc1cnc(-c2cc(O)c(Cl)cc2F)c(Cl)c1 [Ia.362, 2-(4-chloro-2-fluoro-5-hydroxyphenyl)-3-chloro-5-(methylsulfonyl-oxy) pyridine] | 132 to 133 °C
COc1cc(-c2ncc(OS(C)(=O)=O)cc2Cl)c(F)cc1Cl [Ia.363, 2-(4-chloro-2-fluoro-5-methoxyphenyl)-3-chloro-5-(methylsulfonyl-oxy)pyridine] | 118 to 120 °C
